Data reported in US20140148476A1, “METHODS FOR TREATING OBESITY AND DISORDERS ASSOCIATED WITH HYPERLIPIDEMIA IN A MAMMAL” (AEGERION PHARMACEUTICALS, INC., priority 2009, published 2014).
Entries after “also recorded” stand apart in the source; their conditions may differ. Like-named read-outs stand apart in the source and are kept apart here.

Legend:
[1] = cited from earlier work
DGAT −/−mice = test: Hepatic triglyceride levels in DGAT +/− and DGAT −/− mice dosed with AEGR-733; type: in vivo; conditions: DGAT −/− mice treated with AEGR-733 compared to DGAT +/− mice treated with AEGR-733; oral gavage for four successive days, chow diet, euthanized approximately 6 hours after the last dose
Method: DGAT +/−mice or DGAT −/−mice (Jackson Laboratory, Me., U.S.A.) were fed a chow diet ad libitum. Mice were dosed by oral gavage for four successive days with AEGR-733 or with vehicle control at about 9:00 AM. AEGR-733 was dissolved in M-pyrol and diluted to appropriate concentration in vehicle. Final vehicle composition was 10% M-pyrol, 80% water, 5% cremophore, and 5% ethanol. Dosing volume was 200 μl. The mice were euthanized approximately 6 hours after the last dose. Blood was obtained at time of sacrifice by orbital eye bleed and plasma was made for determination of total cholesterol (TC), high density lipoprotein cholesterol (HDL-C), triglyceride (TG) and non-HDL-C.

[2] = 25 mg/day, some patients, monotherapy, cited from earlier work
[3] = clinical studies, dosages of 80 mg/day or greater

| SMILES | adverse events ([1]; 80 mg/day) | adverse events ([1]; 160 mg/day) | adverse events [1, 3] | therapeutic effectiveness [1, 3] | hepatic triglyceride levels (DGAT −/−mice) | adverse events [2] | adverse events ([2]; listed as BMS-201038) |
| --- | --- | --- | --- | --- | --- | --- | --- |
| Cc1cc(C)c2c3ccccc3n(Cc3ccc([C@@H](C(=O)N[C@H](CO)c4ccccc4)C4CCCC4)cc3)c2n1 [implitapide, (2S)-2-cyclopentyl-2-[4-[(2,4-dimethyl-9H-pyrido[2,3-b]indol-9-yl)methyl]phenyl]-N-[(1S)-2-hydroxy-1-phenylethyl]ethanamide] | gastrointestinal disorders, abnormalities in liver function and/or hepatic steatosis | gastrointestinal disorders, abnormalities in liver function and/or hepatic steatosis | gastrointestinal disturbances, abnormalities in liver function, and hepatic steatosis | therapeutically effective | – | – | – |
| O=C(NC1CCN(CCCCC2(C(=O)NCC(F)(F)F)c3ccccc3-c3ccccc32)CC1)c1ccccc1-c1ccc(C(F)(F)F)cc1 [AEGR-733, N-(2,2,2-Trifluorethyl)-9-[4-[4-[[[4′-(trifluoromethyl)[1,1′biphenyl]-2-Yl]carbonyl]amino]-1-piperidinyl]butyl]9H-fluorene-9-carboxamide] | – | – | – | – | significantly reduced; also recorded: significantly lower | gastrointestinal disorders, abnormalities in liver function and/or hepatic steatosis | gastrointestinal disturbances, abnormalities in liver function, and hepatic steatosis |
